The values that follow are results of earlier work, collected in patent publication US20080015223A1, “Pyrazole Derivatives as Modulators of the 5-Ht2a Serotonin Receptor Useful for the Treatment of Disorders Related Thereto” (Arena Pharmaceuticals, Inc., priority 2004, published 2008).

Data set [1] has as its system rats.
The conditions of data set [2]: glaucoma patients.
The conditions of data set [3]: humans, lumbar disc herniation.
The conditions of data set [4]: 24 months of treatment, patients.
Data set [5] concerns rats. The source holds these as a separate data set.
In data set [6] the test system is spontaneously hypertensive rats.

For the compound `CN1CCN2c3ccccc3Cc3ccccc3C2C1` (stereo not drawn) [Mainserin], the DOCA-salt induced hypertension entry in the data set with rats [1] is listed as “prevent”.
For the compound `COc1cccc(CCc2ccccc2OCC(CN(C)C)OC(=O)CCC(=O)O)c1` (stereo not drawn) [sarpogrelate], the IOP entry in data set [2] was “significantly lower”. In data set [3], the “treatment for lower back pain, leg pain and numbness associated with sciatica” value is “effective treatment”. Also, in data set [4], the “urinary albumin excretion level” value is on record as “significantly reduced”. Moreover, the “analgesic effect on thermal induced pain” value with rats [5] (intraperitoneal administration) is “significant analgesic effect”. For the same compound, the “analgesic effect on inflammatory pain” value with rats [5] (intrathecal or intraperitoneal administration) is “significant analgesic effect”.
As for `Cc1nc2sccn2c(=O)c1CCN1CCC(=C(c2ccc(F)cc2)c2ccc(F)cc2)CC1` [ritanserin], the “JC virus infection of human glial cells” value with JC virus is “inhibited”.
Turning to `O=C(c1ccc(F)cc1)C1CCN(CCn2c(=O)[nH]c3ccccc3c2=O)CC1` [ketanserin], the “JC virus infection of human glial cells” value with JC virus is “inhibited”. Moreover, the blood pressure entry in data set [6] is “stabilize”.
